Assay results from patent US20080200433A1, “Molecular Chaperone Function Regulator” (priority 2004, published 2008).

Experiments:
[1] = test system: HSP70; experiment: Induction of HSP70 in T-47D cells (Western blot); format: cell-based, human; conditions: 10 μM, 9 hr; for HSP70 expression, Experiment 2 (T/C, %): control = 100, Experiment 2; for HSP70 expression, Experiment 1 (T/C, %): control = 100, Experiment 1
Procedure: (Method) T-47D cells were cultured in a 12-well plate and, at the time point when the cells grew to about 70-80%, compounds A, B, C, D, E and F were each added to 10 μM.
DMSO (0.1%) was added to the control. After the addition, the cells were collected 9 hr later and cell extracts were prepared. Expression of HSP70 protein in the cell extracts was examined by Western blot using an HSP70 specific antibody. T/C (%) was determined using the amount of chemical luminescence on a PVDF film due to an HRP-labeled secondary antibody as the HSP70 expression amount and HSP70 expression amount of the cells in the control well as 100.

[2] = test system: ubiquitinated protein; experiment: Induction of ubiquitinated protein in T-47D cells (Western blot); format: cell-based, human; conditions: vs DMSO control (FIG. 7)
Procedure: DMSO (0.1%) was added to the control. After the addition, the cells were collected 1, 3, 6 and 24 hr later and cell extracts were prepared. Expression of ubiquitinated protein in the cell extracts was examined by Western blot using a ubiquitin specific antibody. T/C (%) was determined using the amount of chemical luminescence on a PVDF film due to an HRP-labeled secondary antibody as the ubiquitinated protein expression amount and the expression amount of the cell extract in the control well as 100.

[3] = test system: HSP70; experiment: Time-dependent HSP70 induction in A-431 cells (Western blot); format: cell-based, human; conditions: 10 μM, vs DMSO control (FIG. 1)
Procedure: DMSO (0.1%) was added to the control. After the addition, the cells were collected 6, 9, 12 and 24 hr later and cell extracts were prepared. Expression of HSP70 protein in the cell extracts was examined by Western blot using an HSP70 specific antibody. T/C (%) was determined using the amount of chemical luminescence on a PVDF film due to an HRP-labeled secondary antibody as the HSP70 expression amount and HSP70 expression amount of the cells in the control well as 100.

[4] = test system: HSP70; experiment: Induction of HSP70 in various human tumor-derived cells (Western blot); format: cell-based; conditions: TE-8, NCI-H520, HPAC, DU145, KPL-4, MKN-45, HL-60 and DLD-1 cells, 10 μM, 9 hr, vs DMSO control (FIG. 2)
Procedure: (Method) As to the induction of HSP70 by compound A, induction in various human tumor cells was examined.
TE-8 cell, NCI-H520 cell, HPAC cell, DU145 cell, KPL-4 cell, MKN-45 cell, HL-60 cell and DLD-1 cell were each were cultured in a 12-well plate.
DMSO (0.1%) was added to a control well. After the addition, the cells were collected 9 hr later and cell extracts were prepared. Expression of HSP70 protein in the tumor cell extracts was examined by Western blot using an HSP70 specific antibody.

[5] = test system: client proteins EGFR, HER2, ERα, AR, AKT and CDK4 of HSP90 chaperone; experiment: Suppressive action on HSP90 client protein expression in MCF-7 cells (Western blot); format: cell-based, human; conditions: 10 μM, 24 hr, vs DMSO control (FIG. 3)
Procedure: After the addition of the compound, the cells were collected and divided in two 24 hr later. Cell extracts were prepared from half the cells, and cytoplasmic fraction and nuclear fraction were prepared from the remaining half. […] Expression of client in each tumor cell extract and nuclear fraction was examined by Western blot using an antibody specific to each client.

[6] = test system: human breast cancer-derived MCF-7 cell; experiment: Suppressive effect on estradiol (E2)-dependent cell growth (XTT); format: cell-based; conditions: 10 nM E2, Day 10, XTT; compound A 0.037-3 μM, tamoxifen 0.062-5 μM (FIG. 4)
Excerpt: (Method) Using human breast cancer-derived MCF-7 cell that expresses estrogen receptor and grows in response to estradiol (E2, 17β-Estradiol, Cat. #E 1024, Sigma Ltd.), the effect of compound A on the cell growth in the presence of E2 was examined. As the control compound, tamoxifen (Cancer Res., 62, 2474-2477, 2002) (Cat. #T 9262, Sigma Ltd.) known to suppress growth of human breast cancer-derived MCF-7 cell by E2 stimulation was used. MCF-7 cells were suspended in a phenol red non-addition DME-F12 mixed medium containing 5% fetal calf serum treated with activated carbon, and cultured at 2×10^4 cells/well in a 24 well plate. […]
The cell growth activity was measured on Day 10 by the dye method using XTT.
That is, after the completion of the culture, XTT was added to each well and, after color development for 4 hr, the reaction mixture was transferred to a 96 well plate, and the absorbance at 492 nm was measured.
The suppression rate was calculated from the following formula.
Suppression rate (%)={1−[(absorbance of compound addition well in the presence of E2)−(absorbance of control well without E2 addition)]÷[(absorbance of control well in the presence of E2)−(absorbance of control well without E2 addition)]×100

[7] = test system: human prostate cancer-derived DU 145 cells; experiment: Cell growth suppression by combined hyperthermic treatment and compound (XTT); format: cell-based; conditions: 0.37-10 μM, 43° C. 4 hr vs 37° C., then 24 hr culture, XTT (FIG. 5)
Procedure: (Method) Using human prostate cancer-derived DU 145 cells, the effect of compound A on the cell growth suppressive action during hyperthermic treatment was examined. DU 145 cells were cultured at 1×10^4 cells/well in two 96 well plates. The next day, compound A was added to each plate to 0.37, 1.1, 3.3 and 10 μM, one plate was incubated for 4 hr in a 5% CO2 incubator set to 43° C. (heat treatment), and the other plate was incubated in the same manner for 4 hr in a 5% CO2 incubator set to 37° C. After 4 hr, the wells were washed 3 times with saline, a growth medium was added and cultured in a 5% CO2 incubator at 37° C. for 24 hr.
The cell growth activity was measured by the dye method using XTT as in Example 4. That is, after the culture, XTT was added to each well and, 4 hr later, the absorbance at 492 nm was measured.
T/C (%) was determined from the following formula with the absorbance of the control well in the plate without the heat treatment as 100.
T/C (%)=[absorbance of heat-treated control well or compound-treated well÷absorbance of control well without heat treatment]×100

[8] = test system: human breast cancer-derived MCF-7 implanted in nude mouse; experiment: Antitumor effect on human breast cancer-derived MCF-7 implanted in nude mouse; format: in vivo; conditions: 100 mg/kg orally once a day for 2 weeks, vs solvent control, Dunnett's test p<0.05 (FIG. 6)
Procedure: (Method) Human breast cancer-derived MCF-7 cells were subcutaneously implanted in female nude mouse purchased from CLEA Japan, Inc. The effect of compound A on the growth was examined. A 17β-estradiol solution was added dropwise to a small piece of glass microfibre filter GF/B (Whatman, #1821 05) to give a pellet (500 μg/filter). The pellet was subcutaneously implanted in the neck of female Balb/c nude mouse, and MCF-7 cells were subcutaneously implanted in the right back at 5×10^6 cells/mouse. From 7 days after the implantation, compound A was orally administered at 30 mg/kg and 100 mg/kg to nude mice (5 per group) once a day for 2 weeks.
The 0.5% tragacanth solution used as a solvent was similarly administered to the control. The next day of the final administration, the nude mice were sacrificed under anesthesia, and the subcutaneous tumor was isolated and weighed. The mean tumor weight and standard error of each group were calculated, and statistically analyzed by the Dunnett's test and using the solvent administration group as a control.

C=CC(=O)Nc1cc2c(Nc3ccc(F)c(Cl)c3)ncnc2cc1C#CC(C)(C)N1CCN(CCOC)CC1 [B, N-([4-(3-Chloro-4-fluorophenyl)amino]-7-{3-[4-(2-methoxyethyl)-1-piperazinyl]-3-methyl-1-butynyl}-6-quinazolinyl)acrylamide]
HSP70 expression, Experiment 2 (T/C, %) [1]: 482%

C=CC(=O)Nc1cc2c(Nc3ccc(F)c(Cl)c3)ncnc2cc1C#CCN1CCN(C)CC1 [C, N-{4-[(3-Chloro-4-fluorophenyl)amino]-7-[3-(4-methyl-1-piperazinyl)-1-propynyl]-6-quinazolinyl}acrylamide]
HSP70 expression, Experiment 1 (T/C, %) [1]: 207%

C=CC(=O)Nc1cc2c(Nc3cccc(C#N)c3)ncnc2cc1C#CC(C)(C)N1CCN(C)CC1 [D, N-{4-[(3-Cyano-phenyl)amino]-7-[3-methyl-3-(4-methyl-1-piperazinyl)-1-butynyl]-6-quinazolinyl}acrylamide]
HSP70 expression, Experiment 2 (T/C, %) [1]: 446%

C=CC(=O)Nc1cc2c(Nc3ccc(F)c(Cl)c3)ncnc2cc1C#CC1(N2CCN(C)CC2)CCOCC1 [E, N-{4-[(3-Chloro-4-fluorophenyl)amino]-7-[4-(4-methyl-1-piperazinyl)-4-tetrahydropyranylethynyl]-6-quinazolinyl}acrylamide]
HSP70 expression, Experiment 1 (T/C, %) [1]: 172%

CCOc1cc2ncnc(Nc3ccc(F)c(Cl)c3)c2cc1C#CC(C)(C)N(C)C1CCN(C)CC1 [F, (3-Chloro-4-fluorophenyl)-(7-ethoxy-6-{3-methyl-3-[methyl-(1-methyl-4-piperidinyl)amino]-1-butynyl}-4-quinazolinyl)amine]
HSP70 expression, Experiment 1 (T/C, %) [1]: 141%

CC(C)C[C@H](NC(=O)[C@H](Cc1ccccc1)NC(=O)c1cnccn1)B(O)O [bortezomib, reference compound]
amount of ubiquitinated protein ([2]; 3 μM, 1, 3, 6 and 24 hr): remarkably appeared from 3 hr after the treatment

C=CC(=O)Nc1cc2c(Nc3ccc(F)c(Cl)c3)ncnc2cc1C#CC(C)(C)N1CCN(C)CC1 [compound A]
expression of HSP70 ([3]; 6 hr to 12 hr after treatment): increased in a time-dependent manner | expression of HSP70 ([3]; 24 hr after treatment): markedly decreased | HSP70 expression [4]: increased | expression of HSP90 client proteins [5]: decreased expression | growth of MCF-7 cells by E2 stimulation [6]: suppresses the growth | cell death due to heat shock [7]: cell death due to heat shock is enhanced | tumor weight [8]: significantly decreased | HSP70 expression, Experiment 1 (T/C, %) [1]: 299% | HSP70 expression, Experiment 2 (T/C, %) [1]: 895% | amount of ubiquitinated protein ([2]; 1 μM, 1, 3, 6 and 24 hr): did not occur until after 24 hr | amount of ubiquitinated protein ([2]; 3 μM, 1, 3, 6 and 24 hr): increased from 6 hr after the treatment | amount of ubiquitinated protein ([2]; 10 μM, 1, 3, 6 and 24 hr): increased from 6 hr after the treatment

COc1cc2ncnc(Nc3ccc(F)c(Cl)c3)c2cc1OCCCN1CCOCC1 [gefinitib, 4-(3′-Chloro-4′-fluoroanilino)-7-methoxy-6-(3-morpholinopropoxy)quinazoline, reference compound]
HSP70 expression [4]: did not show a clear increase

CC/C(=C(\c1ccccc1)c1ccc(OCCN(C)C)cc1)c1ccccc1 [tamoxifen, reference compound]
growth of MCF-7 cells by E2 stimulation [6]: suppresses the growth
